The source of these data is patent US20210347780A1, “CDPK1 INHIBITORS, COMPOSITIONS, AND METHODS RELATED THERETO” (Vyera Pharmaceuticals, LLC, priority 2018, published 2021).

The assay addresses T1, T. gondii CDPK1 (tgCDPK1) (Toxoplasma gondii, UniProt Q9BJF5).
T1 sequence (Q9BJF5 1-507): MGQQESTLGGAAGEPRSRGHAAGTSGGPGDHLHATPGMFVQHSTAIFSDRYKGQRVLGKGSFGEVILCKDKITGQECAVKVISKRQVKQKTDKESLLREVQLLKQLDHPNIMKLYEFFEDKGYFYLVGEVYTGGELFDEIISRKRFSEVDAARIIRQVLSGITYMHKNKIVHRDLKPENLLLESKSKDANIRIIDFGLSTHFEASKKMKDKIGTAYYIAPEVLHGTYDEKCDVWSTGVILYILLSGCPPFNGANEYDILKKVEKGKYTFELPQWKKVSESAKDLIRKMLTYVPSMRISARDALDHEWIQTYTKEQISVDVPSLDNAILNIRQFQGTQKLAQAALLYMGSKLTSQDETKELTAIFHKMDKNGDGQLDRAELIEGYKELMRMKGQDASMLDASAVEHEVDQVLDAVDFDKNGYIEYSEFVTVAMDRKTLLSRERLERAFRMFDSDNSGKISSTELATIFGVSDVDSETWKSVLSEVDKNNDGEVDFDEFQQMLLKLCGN
The assay can be described thus: biochemical. The note with it: inhibition of T. gondii CDPK1; at least three independent replicates; read-out: tgCDPK1 IC50. How it is done:
Certain of the compounds prepared as described above were assayed to determine their IC50 for inhibition of T. gondii CDPK1 (tgCDPK1). At least three independent replicates of the assay were conducted for each compound tested.
As for `Nc1ncnc2c1c(Oc1cc(C(F)(F)F)ccn1)nn2CC1CC(O)C1` (stereo not shown) [Compound 273], the IC50 is 35.8 nM.
For `Nc1ncnc2c1c(Oc1cc(C(F)(F)F)ccn1)nn2C1CC(F)(F)CCC1O` (stereo not shown) [Compound 274], the IC50 amounted to 35 nM.
Take `CC(=O)Oc1ccnc(Oc2nn(C3CCC(F)(F)CC3)c3ncnc(N)c23)c1` [Compound 277]: the IC50 turned out to be 21.5 nM.
On to `Nc1ncnc2c1c(Oc1cc(O)ccn1)nn2[C@H]1CCCC[C@@H]1O` [Compound 278], for which the IC50 stood at 18.9 nM.
Regarding `Nc1ncnc2c1c(Oc1cc(C(F)(F)F)ccn1)nn2C1CCCCC1(F)F` (stereo not shown) [Compound 279], the IC50 is 35.7 nM.
Turning to `Nc1ncnc2c1c(Oc1cc(C(F)(F)F)ccn1)nn2CC(F)(F)F` [Compound 280], the half-maximal inhibitory concentration (IC50) came out at 38.6 nM.
With `COc1ccnc(Oc2nn([C@@H]3CCCC[C@H]3O)c3ncnc(N)c23)c1` [Compound 281], the IC50 is 26.2 nM.
Turning to `COc1ccnc(Oc2nn([C@H]3CCCC[C@H]3O)c3ncnc(N)c23)c1` [Compound 282], the IC50 stood at 41.3 nM.
Under `CCOC(=O)C1(n2nc(Oc3cc(C(F)(F)F)ccn3)c3c(N)ncnc32)CCC1` [Compound 287] stands 728 nM; under `Nc1ncnc2c1c(Oc1cc(C(F)(F)F)ccn1)nn2C1(C(=O)O)CCC1` [Compound 288], 11900 nM.
Next, `Nc1ncnc2c1c(Oc1cc(C(F)(F)F)ccn1)nn2C1CCCCC1=O` (stereo not shown) [Compound 289]: 98.5 nM.
As for `Nc1ncnc2c1c(Oc1cc(O)ccn1)nn2C1CC(F)C1` (stereo not shown) [Compound 290], the IC50 was found to be 8.7 nM.
Next, “(trans)-3-(4-amino-3-((5-fluoro-1H-indol-3-yl)methyl)-1H-pyrazolo[3,4-d]pyrimidin-1-yl)cyclobutan-1-ol [Compound 154]”: 11.8 nM.
